pEC50: −log10 of the molar value.
What follows are compounds tested on HCV 1b genotype (assay: HCV Replicon assay (HCV 16-377-neo replicon cells)). Settings: Hepatitis C virus; HCV 1b genotype replicon cells; read-out: EC50 ranges against HCV 1b.
Assay type: cell-based
Description: An HCV Replion assay was utilized in the present disclosure, and was prepared, conducted and validated as described in commonly owned PCT/US2006/022197 and in O'Boyle et. al. Antimicrob Agents Chemother. 2005 Apr;49(4): 1346-53.
HCV 16-377-neo replicon cells were used to test the currently described compound series as well as cells resistant to compound A due to a Y2065H mutation in NS5A (described in application PCT/US2006/022197). The compounds tested were determined to have more than 10-fold less inhibitory activity on cells resistant to compound A than wild-type cells indicating a related mechanism of action between the two compound series. Thus, the compounds of the present disclosure can be effective to inhibit the function of the HCV NS5A protein and are understood to be as effective in combinations as previously described in application PCT/US2006/022197 and commonly owned WO/O4014852. Further, the compounds of the present disclosure can be effective against the HCV 1b genotype. It should also be understood that the compounds of the present disclosure can inhibit multiple genotypes of HCV. […] In one embodiment compounds of the present disclosure are active against the 1a, 1b, 2a, 2b, 3a, 4a, and 5a genotypes.

Row | SMILES | pEC50
1 | COC(=O)NCC(=O)N1[C@@H]2C[C@@H]2C[C@H]1c1ncc(-c2ccc(-c3ccc(-c4cnc([C@@H]5C[C@H]6C[C@H]6N5C(=O)CNC(=O)OC)[nH]4)cc3)cc2)[nH]1 (mixture of isomers) [Example M134, methyl (2-((1R,3S,SR)-3-(4-(4'-(2-((1R,3S,SR)-2-(((methoxycarbonyl)amino)acetyl)-2-azabicyclo[3.1.0]hex-3-yl)-1H-imidazol-4-yl)-4-biphenylyl)-1H-imidazol-2-yl)-2-azabicyclo[3.1.0]hex-2-yl)-2-oxoethyl) carbamate] | 7.00 to 9.00
2 | COC(=O)N[C@@H](C(=O)N1[C@@H]2C[C@H]2C[C@H]1c1nc(-c2ccc(-c3ccc(-c4c[nH]c([C@@H]5C[C@@H]6C[C@H]6N5C(=O)[C@H](NC(=O)OC)c5ccccc5)n4)cc3)cc2)c[nH]1)c1ccccc1 (mixture of isomers) [Example M137, dimethyl (4,4'-biphenyldiylbis(1H-imidazole-4,2-diyl(1R,3S,SR)-2-azabicyclo[3.1.0]hexane-3,2-diyl((1R)-2-oxo-1-phenyl-2,1-ethanediyl)))biscarbamate] | 9.00 to 12.00
3 | COC(=O)N[C@H](C(=O)N1[C@@H]2C[C@@H]2C[C@H]1c1nc(-c2ccc(-c3ccc(-c4c[nH]c([C@@H]5CC6C[C@H]6N5C(C)=O)n4)cc3)cc2)c[nH]1)C(C)C (mixture of isomers) [Example M138, methyl ((1S)-1-(((1R,3S,5R)-3-(4-(4'-(2-((1R,3S,SR)-2-acetyl-2-azabicyclo[3.1.0]hex-3yl)-1Himidazol-4yl)-4-biphenylyl)-1Himidazol-2-yl)-2-azabicyclo[3.1.0]hex-2-yl)carbonyl)-2-methylpropyl)carbamate] | 9.00 to 12.00
4 | CC(=O)N[C@@H](C(=O)N1[C@@H]2CC2C[C@H]1c1nc(-c2ccc(-c3ccc(-c4c[nH]c([C@@H]5C[C@H]6C[C@H]6N5C(=O)[C@H](NC(C)=O)C(C)C)n4)cc3)cc2)c[nH]1)C(C)C (mixture of isomers) [Example M143, N-((1R)-1-(((1R,3S,5R)-3-(4-(4'-(2-((1R,3S,SR)-2-((2R)-2-acetamido-3-methylbutanoyl)-2-azabicyclo[3.1.0]hex-3-yl)-1H-imidazol-4-yl)-4-biphenylyl)-1H-imidazol-2-yl)-2-azabicyclo[3.1.0]hex-2-yl)carbonyl)-2-methylpropyl)acetamide] | 7.00 to 9.00
5 | Cc1[nH]c([C@@H]2CCCN2C(=O)[C@@H](c2ccccc2)N(C)C)nc1-c1ccc(-c2ccc(-c3c[nH]c([C@@H]4CCCN4C(=O)[C@@H](c4ccccc4)N(C)C)n3)cc2)cc1 [Example E5, (1R)-2-((2S)-2-(4-(4'-(2-((2S)-1-((2R)-2-(dimethylamino)-2-phenylacetyl)-2-pyrrolidinyl)-1H-imidazol-4-yl)-4-biphenylyl)-5-methyl-1 H-imidazol-2-yl)-1-pyrrolidinyl)-N,N-dimethyl-2-oxo-1-phenylethanamine] | 9.00 to 12.00
6 | CCN(CC)[C@@H](C(=O)N1CCC[C@H]1c1nc(-c2ccc(-c3ccc(-c4nc([C@@H]5CCCN5C(=O)[C@@H](c5ccccc5)N(CC)CC)[nH]c4C)cc3)cc2)c[nH]1)c1ccccc1 [Example E5a, (1R)-2-((2S)-2-(4-(4'-(2-((2S)-1-((2R)-2-(diethylamino)-2-phenylacetyl)-2-pyrrolidinyl)-1H-imidazol-4-yl)-4-biphenylyl)-5-methyl-1H-imidazol-2-yl)-1-pyrrolidinyl)-N,N-diethyl-2-oxo-1-phenylethanamine] | 9.00 to 12.00
7 | Cc1nc([C@@H]2CCCN2C(=O)[C@@H](c2ccccc2)N2CCCCC2)[nH]c1-c1ccc(-c2ccc(-c3c[nH]c([C@@H]4CCCN4C(=O)[C@@H](c4ccccc4)N4CCCCC4)n3)cc2)cc1 [Example E5b, 1-((1R)-2-((2S)-2-(4-(4'-(4-methyl-2-((2S)-1-((2R)-2-phenyl-2-(1-piperidinyl)acetyl)-2-pyrrolidinyl)-1H-imidazol-5-yl)-4-biphenylyl)-1H-imidazol-2-yl)-1-pyrrolidinyl)-2-oxo-1-phenylethyl)piperidine] | 9.00 to 12.00
8 | COC(=O)N[C@@H](C(=O)N1CCC[C@H]1c1nc(-c2ccc(-c3ccc(-c4nc([C@@H]5CCCN5C(=O)[C@H](NC(=O)OC)c5ccccc5)[nH]c4C)cc3)cc2)c[nH]1)c1ccccc1 [Example E5c, methyl ((1R)-2-((2S)-2-(4-(4'-(2-((2S)-1-((2R)-2-((methoxycarbonyl)amino)-2-phenylacetyl)-2-pyrrolidinyl)-1H-imidazol-4-yl)-4-biphenylyl)-5-methyl-1H-imidazol-2-yl)-1-pyrrolidinyl)-2-oxo-1-phenylethyl)carbam ate] | 9.00 to 12.00
9 | COC(=O)N[C@@H](C)C(=O)N1CCC[C@H]1c1nc(-c2ccc(-c3ccc(-c4[nH]c([C@@H]5CCCN5C(=O)[C@H](C)NC(=O)OC)nc4C)cc3)cc2)c[nH]1 [Example E5d, methyl ((1S)-2-((2S)-2-(4-(4'-(2-((2S)-1-(N-(methoxycarbonyl)-L-alanyl)-2-pyrrolidinyl)-4-methyl-1H-imidazol-5-yl)-4-biphenylyl)-1H-imidazol-2-yl)-1-pyrrolidinyl)-1-methyl-2-oxoethyl)carbamate] | 9.00 to 12.00
10 | COC(=O)N[C@H](C(=O)N1CCC[C@H]1c1nc(-c2ccc(-c3ccc(-c4nc([C@@H]5CCCN5C(=O)[C@@H](NC(=O)OC)C(C)C)[nH]c4C)cc3)cc2)c[nH]1)C(C)C [Example E5e, methyl ((1S)-1-(((2S)-2-(4-(4'-(2-((2S)-1-((2S)-2-((methoxycarbonyl)amino)-3-methylbutanoyl)-2-pyrrolidinyl)-1H-imidazol-4-yl)-4-biphenylyl)-5-methyl-1H-imidazol-2-yl)-1-pyrrolidinyl)carbonyl)-2-methylpropyl)carba mate] | 9.00 to 12.00
11 | COC(=O)N[C@H](C(=O)N1CCC[C@H]1c1nc(-c2ccc(-c3ccc(-c4[nH]c([C@@H]5CCCN5C(=O)[C@@H](NC(=O)OC)[C@@H](C)OC)nc4C)cc3)cc2)c[nH]1)[C@@H](C)OC [Example E5f, methyl ((1S,2R)-2-methoxy-1-(((2S)-2-(4-(4'-(2-((2S)-1-(N-(methoxycarbonyl)-O-methyl-L-threonyl)-2-pyrrolidinyl)-4-methyl-1H-imidazol-5-yl)-4-biphenylyl)-1H-imidazol-2-yl)-1-pyrrolidinyl)carbonyl)propyl)carbamate] | 9.00 to 12.00
12 | Cc1nc([C@@H]2CCCN2C(=O)[C@@H](c2ccccc2)N(C)C)[nH]c1-c1ccc(-c2ccc(-c3[nH]c([C@@H]4CCCN4C(=O)[C@@H](c4ccccc4)N(C)C)nc3C)cc2)cc1 [Example E5g, (1R,1'R)-2,2'-(4,4'-biphenyldiylbis((4-methyl-1H-imidazole-5,2-diyl)(2S)-2,1-pyrrolidinediyl))bis (N,N-dimethyl-2-oxo-1-phenylethanamine)] | 9.00 to 12.00
13 | CCN(CC)[C@@H](C(=O)N1CCC[C@H]1c1nc(C)c(-c2ccc(-c3ccc(-c4[nH]c([C@@H]5CCCN5C(=O)[C@@H](c5ccccc5)N(CC)CC)nc4C)cc3)cc2)[nH]1)c1ccccc1 [Example E5h, (1R,1'R)-2,2'-(4,4'-biphenyldiylbis((4-methyl-1H-imidazole-5,2-diyl)(2S)-2,1-pyrrolidinediyl))bis (N,N-diethyl-2-oxo-1-phenylethanamine)] | 9.00 to 12.00
14 | Cc1nc([C@@H]2CCCN2C(=O)[C@@H](c2ccccc2)N2CCCCC2)[nH]c1-c1ccc(-c2ccc(-c3[nH]c([C@@H]4CCCN4C(=O)[C@@H](c4ccccc4)N4CCCCC4)nc3C)cc2)cc1 [Example E5i, 1,1'-(4,4'-biphenyldiylbis((4-methyl-1H-imidazole-5,2-diyl)(2S)-2,1-pyrrolidinediyl((1R )-2-oxo-1-phenyl-2,1-ethanediyl)))dipiper idine] | 9.00 to 12.00
15 | COC(=O)N[C@@H](C(=O)N1CCC[C@H]1c1nc(C)c(-c2ccc(-c3ccc(-c4[nH]c([C@@H]5CCCN5C(=O)[C@H](NC(=O)OC)c5ccccc5)nc4C)cc3)cc2)[nH]1)c1ccccc1 [Example E5j, dimethyl (4,4'-biphenyldiylbis((4-methyl-1H-imidazole-5,2-diyl)(2S)-2,1-pyrrolidinediyl((1R )-2-oxo-1-phenyl-2,1-ethanediyl)))biscarb amate] | 9.00 to 12.00
16 | COC(=O)N[C@@H](C)C(=O)N1CCC[C@H]1c1nc(-c2ccc(-c3ccc(-c4nc([C@@H]5CCCN5C(=O)[C@H](C)NC(=O)OC)[nH]c4C)cc3)cc2)c(C)[nH]1 [Example E5k, methyl ((1S)-2-((2S)-2-(4-(4'-(2-((2S)-1-(N-(methoxycarbonyl)-L-alanyl)-2-pyrrolidinyl)-5-methyl-1H-imidazol-4-yl)-4-biphenylyl)-5-methyl-1H-imidazol-2-yl)-1-pyrrolidinyl)-1-methyl-2-oxoethyl)carbamate] | 9.00 to 12.00
17 | COC(=O)N[C@H](C(=O)N1CCC[C@H]1c1nc(-c2ccc(-c3ccc(-c4[nH]c([C@@H]5CCCN5C(=O)[C@@H](NC(=O)OC)C(C)C)nc4C)cc3)cc2)c(C)[nH]1)C(C)C [Example E5l, methyl ((1S)-1-(((2S)-2-(4-(4'-(2-((2S)-1-((2S)-2-((methoxycarbonyl)amino)-3-methylbutanoyl)-2-pyrrolidinyl)-4-methyl-1H-imidazol-5-yl)-4-biphenylyl)-5-methyl-1H-imidazol-2-yl)-1-pyrrolidinyl)carbonyl)-2-methylpropyl)carba mate] | 9.00 to 12.00

— patent EP2242752B1, “[…] IMIDAZOLES AS HEPATITIS C VIRUS INHIBITORS” (Bristol-Myers Squibb Company, priority 2008, dated 2009)
